According to patent US8598383B2, “Pharmaceutical composition for treating or preventing degenerative and inflammatory diseases” (Neurotech Pharmaceuticals Co., Ltd., priority 2006, dated 2013):

Columns and labels:
atherosclerosis = details: early formation of atherosclerotic lesion; cited from earlier work
diabetic symptoms = details: mouse administered streptozotocin; cited from earlier work
BV2 microglia cell line = assay: Suppressing effect on production of NO (LPS, Griess reagent); assay type: cell-based; details: Mus musculus, BV-2, LPS-treated BV2 microglia, 24 hours incubation
Experimental: Inhibiting effect of the 2-hydroxybenzoic acid derivative according to the present invention on NO, inflammatory factor intervening inflammation reaction was evaluated. BV2 microglia cell line was treated with lipopolysaccharide (LPS), a inflammation-inducing material of bacteria toxin, with inclusion of 10 uM, 30 uM or 100 uM of the present compound. After 24 hours of incubation, 50 ul of culture medium was collected in 96-well plate. Then, 50 ul of Griess reagent was added and incubated for 10 minutes at room temperature. The absorbance was evaluated by ELISA reader at 540 nm.

[1] = Single-dose toxicity test; assay type: in vivo; details: mouse, in vivo; single dose
Experimental: FIG. 32 is results of single dose toxicity testing of some 2-hydroxybenzoic acid derivatives according to the present invention.
Single-dose toxicities of the 2-hydroxybenzoic acid derivatives were evaluated.

gastric mucous membrane = assay: Safety test about induction of gastric mucous membrane damage; assay type: in vivo; details: oral, high dose; indomethacine, ibuprofen, celecoxib as control
Experimental: Test samples were orally administered at different doses to evaluate the degree of the gastric mucous membrane damage. Aspirin was used as control.
FIG. 2 is results showing degrees of the gastric mucous membrane damage. Test samples were orally administered at indicated doses. […] Indomethacine, ibuprofen and celecoxib were used as control.
Conventional NSAIDs have side effects causing damages to the gastric mucous membrane. Therefore, it was evaluated whether compound 2 having anti-inflammatory effect causes the gastric damage or not. 30, 100 or 300 mg/kg of aspirin was orally administered as control.

[2] = system: collagen-induced arthritis; assay: Collagen-induced arthritis model (arthritic index); assay type: in vivo, mouse; details: 25 mg/kg/day intraperitoneal
Experimental: FIG. 15 is results showing efficacy through arthritis animal model induced by collagen. 25 mg/kg of compound 2, 3 or 18, or methotrexate (control, MTX, 1 mg/kg/week) was intraperitoneally injected after administration of collagen.
FIG. 16 is results showing efficacy of compounds 6 and 11 through arthritis animal model induced by collagen. Collagen was intradermally injected two times with 2 week-interval. One week later, compound 6, compound 11 and methotrexate (control) were intraperitoneally injected. Then, the animals were observed everyday for 2-3 weeks, and results was evaluated by arthritis index.
To evaluate the efficacy of the 2-hydroxybenzoic acid derivative, collagen-induced arthritis model (rheumarthritis animal model) was used. Bovine type II collagen was mixed with complete Freund's adjuvant to make an emulsion, and the emulsion was intradermally injected into the origin site of 8˜10 week-old DBA/1LacJ mouse tail. Intradermal boosting was performed by the same method 2 weeks later. 25 mg/kg/day of compounds 2, 3 and 18, 1 mg/kg/week of methotrexate (comparative example) or 10% vehicle (control) were intraperitoneally injected one week after the second intradermal injection of collagen (FIG. 15). Pictures of foot edema of normal rat (sham), collagen-administered rat (collagen) and compound 18-administered rat (compound 18, 25 mg/kg/day injection) were shown in FIG. 14.
In addition, 50 mg/kg/day of compounds 6 and 11, and 5 mg/kg/2 days of methotrexate (comparative example) were intraperitoneally injected. Phosphate buffered saline was injected as control (FIG. 16). For 2˜3 weeks, the degree of arthritis was observed everyday, and the result was evaluated according to the below arthritic index using edema.
4 paws were evaluated as from 0 to 4 point, Total points: 16

DSS-induced colitis = assay: 5% dextran sulfate sodium (DSS) inflammatory intestinal disease model; assay type: in vivo, mouse
Experimental: FIG. 17 is results showing efficacy through 5% dextran sulfate sodium (DSS) model, inflammatory intestinal disease animal model. After treatment of DSS, 10, 25 or 50 mg/kg of compound 18 suspended in 10% vehicle was orally administered. Sham means colon of normal mouse, DSS means colon mouse treated with 5% DSS. The others are pictures of colon of mice administered with compound 18 at indicated dose.
FIG. 20 is an efficacy test result of compound 18 using DSS. After treatment of DSS, compound 18 (25 mg/kg) suspended in 10% vehicle was orally administered. After that, bloody excrement by colon injury, diarrhea and the degree of dirtiness were evaluated as feces score.
5% dextran sulfate sodium (DSS) model was used as inflammatory intestinal disease animal model. 5% DSS mixed with water was orally administered. 5% DSS model causes damage to epithelial cell, and ulcer in left colon and the decrease of colon length are mainly observed in the model. This model is simple and reproductive, and can regulate the degree of inflammation according to dose. Therefore, this model is often used for evaluating drug candidates.
DSS is continuously administered in water bottle. The 2-hydroxybenzoic acid derivative was suspended in 10% vehicle, and orally administered.

[3] = system: cerulein-induced pancreatitis; assay: Cerulein-induced acute pancreatitis model; assay type: in vivo, wistar rat
Experimental: FIG. 21 is efficacy test results using acute pancreatitis model induced by cerulein. 50 ug/kg of cerulein was administered. Two hours later, edema was induced by administration of LPS. A-C are picture results, and D is graphs showing the weight of pancreas.
FIG. 22 is efficacy test results using acute pancreatitis model induced by cerulein. 50 ug/kg of cerulein was administered. Two hours later, edema was induced by administration of LPS. 25 mg/kg of compound 18 was administered, and the changes of amylase and lipase, pancreatic digestive enzymes, were quantified.
Cerulein-induced pancreatitis model was used as acute pancreatitis model. Cerulein is an analog of cholecystokinin and a hormone causing secretion of pancreatic digestive enzyme in pancreas. Digestive enzyme was over-secreted into pancreas by intraperitoneal injection of cerulein (50 ug/kg). LPS was injected 2 hours later to induce edema. When cerulein was administered, massive edema was observed on the basis of spleen. […] D of FIG. 21 is results showing the pancreas weight increased by the edema.
The model excessively increases digestive enzymes, which are released into blood. That is, the decrease of digestive enzyme in blood can be an indirect evidence for sample to reduce pancreatitis.
To confirm the protecting effect on inflammation, the levels of TNF-α and […], inflammatory cytokines, were evaluated. PGE2, the product of COX-2 (inflammation enzyme), were evaluated by ELISA method.

Structure (SMILES): COc1ccc2c(c1)c(CC(=O)O)c(C)n2C(=O)c1ccc(Cl)cc1 [indomethacine]
- reduction of atherosclerosis (atherosclerosis): 38-51%

Structure (SMILES): C[C@@H](O)CCCCn1c(=O)c2c(ncn2C)n(C)c1=O [Lisofylline]
- reduction of diabetic symptoms (diabetic symptoms): 50%

Structure (SMILES): CC(=O)Oc1ccc(NCCc2ccc(C(F)(F)F)cc2)cc1C(=O)O [compound 18, 2-acetoxy-5-[2-(4-trifluoromethyl-phenyl)-ethylamino]-benzoic acid]
- IC50 (BV2 microglia cell line): 21.6 µM
- LD50 [1]: > 3000 mg/kg
- gastric mucous membrane damage (gastric mucous membrane): did not cause damage to gastric mucous membrane
- arthritic index [2]: apparent reducing effect
- length and width of colon (DSS-induced colitis; oral, 10, 25 or 50 mg/kg in 10% vehicle): significantly changed the length and width of the colon
- feces score (bloody excrement, diarrhea, dirtiness) (DSS-induced colitis; vs DSS only, compound 18 25 mg/kg oral): significantly decreased feces score
- amylase and lipase in plasma ([3]; 25 mg/kg): significantly reduced the increase
- pancreas weight ([3]; 25 mg/kg): significantly reduced pancreas weight
- pancreatic edema ([3]; 25 mg/kg): the edema was decreased
- TNF-α, IL-1β and PGE2 (inflammation markers) ([3]; ELISA): significantly reduced these inflammation markers
